Among the data in patent US7473700B2, “1,2,4-triazole derivatives, processes for the preparation thereof, and pharmaceutical compositions containing the same” (CJ Corporation, priority 2002, dated 2009) are inhibition values, retold here.

SMILES strings stand for the structures.

One test concerns the target T1, COX-1 (Homo sapiens, UniProt P23219).
T1 construct: host or cells: U-937 human lymphoma cells
Put plainly: Assay for the COX-1 inhibitory activity using U-937 (PGE2 inhibition). Type of test: cell-based. The conditions noted are these: 1 μM test compound; U-937 human lymphoma cells; PGE2 after arachidonic acid; read-out: Cyclooxygenase (COX) Inhibition (%) COX-1 (1 μM). The protocol:
The collected cells were diluted with HBSS (×1, Hank's balanced salt solution) to a concentration of 1×10^6 cells/ml. 1 ml of the dilute cell solution was placed into each well of 12-well plates. 5 μl of 1 μM solution of a test compound in DMSO and 5 μl of DMSO as a control were added to the wells. The wells were incubated in CO2 incubator at 37° C. for 15 minutes. Separately, 10 mM stock solution of arachidonic acid in ethanol was diluted ten times in ethanol to prepare 1 mM solution of arachidonic acid. Arachidonic acid acts as a substrate. 10 μl of the 1 mM solution of arachidonic acid was added to each well and incubated at CO2 incubator at 37° C. for 30 minutes. The cell solution of each well was placed in a centrifuge test tube and centrifuged at 10,000 rpm at 4° C. for 5 minutes. The concentration of PGE2 in the collected cells and the supernatant was quantified by means of a monoclonal kit (Cayman Chemicals). The percentages of PGE2 inhibition in a group of the test compound-treated cells in relation to a group of the DMSO-treated cells were calculated. Based on the calculated values, the COX-1 inhibitory activities were evaluated.
(§1) The percentages of the COX inhibition were calculated according to the following equation: % Inhibition=(concentration of PGE2 in test compound-untreated sample−concentration of PGE2 in test compound-treated sample)/(concentration of PGE2 in test compound-untreated sample)×100

A further test addresses T2, COX-2 (Mus musculus, UniProt Q05769).
T2 construct: host or cells: RAW 264.7 cells, aspirin-pretreated, then induced with interferon gamma and LPS
T2 sequence (Q05769 18-604): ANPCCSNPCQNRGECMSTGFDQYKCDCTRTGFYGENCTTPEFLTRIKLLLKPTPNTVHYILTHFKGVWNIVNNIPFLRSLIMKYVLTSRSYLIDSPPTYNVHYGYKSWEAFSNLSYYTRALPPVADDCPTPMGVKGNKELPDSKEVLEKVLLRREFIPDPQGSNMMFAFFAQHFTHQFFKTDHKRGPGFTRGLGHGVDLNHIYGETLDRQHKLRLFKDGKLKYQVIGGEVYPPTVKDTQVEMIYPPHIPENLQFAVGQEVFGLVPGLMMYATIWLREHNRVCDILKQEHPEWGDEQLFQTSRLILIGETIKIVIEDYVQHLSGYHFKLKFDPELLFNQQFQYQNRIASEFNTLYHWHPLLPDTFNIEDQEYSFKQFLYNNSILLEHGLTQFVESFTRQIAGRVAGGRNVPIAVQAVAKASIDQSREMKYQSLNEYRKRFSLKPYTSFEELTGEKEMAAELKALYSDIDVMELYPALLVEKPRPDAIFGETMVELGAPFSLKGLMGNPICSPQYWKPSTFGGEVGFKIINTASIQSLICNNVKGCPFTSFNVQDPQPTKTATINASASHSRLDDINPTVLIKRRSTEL
Put plainly: Assay for the COX-2 inhibitory activity using RAW 264.7 cell line (PGE2 inhibition). Conditions: RAW264.7, 10 nM test compound, RAW 264.7 cells, interferon γ and LPS, 18 hours, read-out: Cyclooxygenase (COX) Inhibition (%) COX-2 (10 nM). The format is cell-based. As to the method:
Each well was treated with 250 μM of aspirin and incubated at 37° C. for 2 hours. After the culture media were replaced with new culture media, the new culture media were treated with a test compound (10 nM) and incubated for 30 minutes. Then, each well was treated with interferon γ (100 units/ml) and lipopolysaccharide (LPS, 100 ng/ml) and incubated for 18 hours. The culture media were transferred to other test tubes. The concentration of PGE2 was quantified by means of the EIA kit (Cayman Chemicals).
as §1

T1 sequence (P23219 24-599): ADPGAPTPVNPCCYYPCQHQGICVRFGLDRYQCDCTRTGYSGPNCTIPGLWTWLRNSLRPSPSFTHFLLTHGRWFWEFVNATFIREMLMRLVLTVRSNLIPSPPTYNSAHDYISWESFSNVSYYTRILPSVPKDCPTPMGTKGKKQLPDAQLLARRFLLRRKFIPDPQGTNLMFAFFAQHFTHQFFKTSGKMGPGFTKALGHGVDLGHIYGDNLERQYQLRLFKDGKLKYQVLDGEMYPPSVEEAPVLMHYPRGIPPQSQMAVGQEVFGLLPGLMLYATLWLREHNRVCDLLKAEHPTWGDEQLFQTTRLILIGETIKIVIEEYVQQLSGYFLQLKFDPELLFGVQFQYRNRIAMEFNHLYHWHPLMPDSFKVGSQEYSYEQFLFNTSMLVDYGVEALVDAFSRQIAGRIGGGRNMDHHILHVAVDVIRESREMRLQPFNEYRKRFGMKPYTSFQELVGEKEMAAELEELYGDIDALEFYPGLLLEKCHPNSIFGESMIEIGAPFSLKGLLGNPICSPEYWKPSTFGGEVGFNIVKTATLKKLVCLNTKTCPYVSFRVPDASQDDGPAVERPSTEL

In general, inhibition refers to the share of the control response that was lost under treatment. As for `NS(=O)(=O)c1ccc(-n2nc(OC3CC3)nc2-c2ccccc2)cc1` [Example 58, 4-[3-cyclopropoxy-5-phenyl-1,2,4-triazole-1-yl]-benzenesulfonamide], the inhibition at 1 µM at COX-1 came out at 34.3%. Moreover, the inhibition at 0.01 µM at COX-2 worked out at 30.4%.

Take `COc1ccc(-c2nc(OCC#N)nn2-c2ccc(S(N)(=O)=O)cc2)cc1` [Example 41, 4-[3-cyanomethoxy-5-(4-methoxyphenyl)-1,2,4-triazole-1-yl]-benzenesulfonamide]: on COX-1, the inhibition at 1 µM stood at 27.7%. Moreover, the inhibition at 0.01 µM on COX-2 was found to be 15.5%.

On to `C#CCSc1nc(-c2ccccc2)n(-c2ccc(S(N)(=O)=O)cc2)n1` [Example 45, 4-(3-prop-2-ynylthio-5-phenyl-1,2,4-triazole-1-yl)-benzenesulfonamide], for which, on COX-1, the inhibition at 1 µM was found to be 23.4%. The inhibition at 0.01 µM at COX-2 came out at 13.3%.

Consider `NS(=O)(=O)c1ccc(-n2nc(OCCCl)nc2-c2ccccc2)cc1` [Example 57, 4-[3-(2-chloroethoxy)-5-phenyl-1,2,4-triazole-1-yl]-benzenesulfonamide], for which, at COX-1, the inhibition at 1 µM worked out at 21.4%. The inhibition at 0.01 µM at COX-2 turned out to be 26.6%.

`NS(=O)(=O)c1ccc(-n2nc(S)nc2-c2ccccc2)cc1` [Example 21, 4-(3-mercapto-5-phenyl-1,2,4-triazole-1-yl)-benzenesulfonamide]: on COX-1, the inhibition at 1 µM is 25.7%. In addition, the inhibition at 0.01 µM on COX-2 is 12.6%.

With `COc1nc(-c2ccc(F)cc2)n(-c2ccc(S(N)(=O)=O)cc2)n1` [Example 26, 4-[3-methoxy-5-(4-fluorophenyl)-1,2,4-triazole-1-yl]-benzenesulfonamide], the inhibition at 1 µM at COX-1 came to 44.5%. On COX-2, the inhibition at 0.01 µM was found to be 13.5%.

With `C=CCOc1nc(-c2ccc(F)cc2)n(-c2ccc(S(N)(=O)=O)cc2)n1` [Example 54, 4-[3-allyloxy-5-(4-fluorophenyl)-1,2,4-triazole-1-yl]-benzenesulfonamide], the inhibition at 1 µM on COX-1 turned out to be 26.4%. At COX-2, the inhibition at 0.01 µM stood at 15.5%.

Turning to `C=CCOc1nc(-c2ccc(OC)cc2)n(-c2ccc(S(N)(=O)=O)cc2)n1` [Example 52, 4-[3-allyloxy-5-(4-methoxyphenyl)-1,2,4-triazole-1-yl]-benzenesulfonamide], at COX-1, the inhibition at 1 µM was 34.3%. Moreover, the inhibition at 0.01 µM on COX-2 was 33.1%.

As for `CC(C)Oc1nc(-c2ccccc2)n(-c2ccc(S(N)(=O)=O)cc2)n1` [Example 47, 4-(3-isopropoxy-5-phenyl-1,2,4-triazole-1-yl)-benzenesulfonamide], the inhibition at 1 µM on COX-1 came to 25.4%. Besides, the inhibition at 0.01 µM on COX-2 worked out at 10.6%.

In the case of `COc1ccc(-c2nc(OC3CCCCC3)nn2-c2ccc(S(N)(=O)=O)cc2)cc1` [Example 39, 4-[3-cyclohexyloxy-5-(4-methoxyphenyl)-1,2,4-triazole-1-yl]-benzenesulfonamide], the inhibition at 1 µM at COX-1 was 15.5%. The inhibition at 0.01 µM at COX-2 is 20.7%.

As to `N#CCOc1nc(-c2ccc(F)cc2)n(-c2ccc(S(N)(=O)=O)cc2)n1` [Example 42, 4-[3-cyanomethoxy-5-(4-fluorophenyl)-1,2,4-triazole-1-yl]-benzenesulfonamide], the inhibition at 1 µM on COX-1 turned out to be 26.6%. Also, on COX-2, the inhibition at 0.01 µM turned out to be 13.3%.

For `CCOc1nc(-c2ccc(F)cc2)n(-c2ccc(S(N)(=O)=O)cc2)n1` [Example 32, 4-[3-ethoxy-5-(4-fluorophenyl)-1,2,4-triazole-1-yl]-benzenesulfonamide], at COX-1, the inhibition at 1 µM worked out at 21.4%. Besides, on COX-2, the inhibition at 0.01 µM stood at 11.5%.

`COc1ccc(-c2nc(OCC(F)(F)F)nn2-c2ccc(S(N)(=O)=O)cc2)cc1` [Example 55, 4-[3-(2,2,2-trifluoroethoxy)-5-(4-methoxyphenyl)-1,2,4-triazole-1-yl]-benzenesulfonamide]: on COX-1, the inhibition at 1 µM came out at 33.1%. In addition, the inhibition at 0.01 µM on COX-2 stood at 16.2%.

With `CC(C)Sc1nc(-c2ccccc2)n(-c2ccc(S(N)(=O)=O)cc2)n1` [Example 49, 4-(3-isopropylthio-5-phenyl-1,2,4-triazole-1-yl)-benzenesulfonamide], the inhibition at 1 µM on COX-1 came out at 33.1%. In addition, the inhibition at 0.01 µM on COX-2 was 24.5%.

For `COc1ccc(-c2nc(O)nn2-c2ccc(S(C)(=O)=O)cc2)cc1` [Example 23, 1-(4-methanesulfonylphenyl)-5-(4-methoxyphenyl)-1H-1,2,4-triazole-3-ol], the inhibition at 1 µM at COX-1 came to 13.2%. The inhibition at 0.01 µM on COX-2 was determined as 35.1%.

On to `CCOc1nc(-c2ccc(OC)cc2)n(-c2ccc(S(C)(=O)=O)cc2)n1` [Example 61, 1-(4-methanesulfonylphenyl)-3-ethoxy-5-(4-methoxylphenyl)-1H-1,2,4-triazole], for which the inhibition at 1 µM on COX-1 stood at 33.1%. In addition, on COX-2, the inhibition at 0.01 µM amounted to 34.2%.

Consider `C#CCOc1nc(-c2ccc(OC)cc2)n(-c2ccc(S(N)(=O)=O)cc2)n1` [Example 43, 4-[3-prop-2-ynyloxy-5-(4-methoxyphenyl)-1,2,4-triazole-1-yl]-benzenesulfonamide], for which, on COX-1, the inhibition at 1 µM is 30.4%. At COX-2, the inhibition at 0.01 µM turned out to be 16.7%.

Consider `CCCOc1nc(-c2ccc(F)cc2)n(-c2ccc(S(N)(=O)=O)cc2)n1` [Example 36, 4-[3-propoxy-5-(4-fluorophenyl)-1,2,4-triazole-1-yl]-benzenesulfonamide], for which the inhibition at 1 µM at COX-1 amounted to 27%. For the same compound, on COX-2, the inhibition at 0.01 µM stood at 17.2%.

With `CCCOc1nc(-c2ccc(OC)cc2)n(-c2ccc(S(N)(=O)=O)cc2)n1` [Example 35, 4-[3-propoxy-5-(4-methoxyphenyl)-1,2,4-triazole-1-yl]-benzenesulfonamide], on COX-1, the inhibition at 1 µM is 23.4%. In addition, on COX-2, the inhibition at 0.01 µM was found to be 16.1%.

`C=CCOc1nc(-c2ccccc2)n(-c2ccc(S(N)(=O)=O)cc2)n1` [Example 53, 4-(3-allyloxy-5-phenyl-1,2,4-triazole-1-yl)-benzenesulfonamide]: the inhibition at 1 µM at COX-1 was 20.4%. Moreover, the inhibition at 0.01 µM on COX-2 came to 16.2%.

As to `COc1ccc(-c2nc(OC(C)C)nn2-c2ccc(S(C)(=O)=O)cc2)cc1` [Example 63, 1-(4-methanesulfonylphenyl)-3-isopropoxy-5-(4-methoxyphenyl)-1H-1,2,4-triazole], the inhibition at 1 µM at COX-1 amounted to 22.6%. At COX-2, the inhibition at 0.01 µM came to 26.4%.

Regarding `COc1nc(-c2ccccc2)n(-c2ccc(S(N)(=O)=O)cc2)n1` [Example 25, 4-(3-methoxy-5-phenyl-1,2,4-triazole-1-yl)-benzenesulfonamide], the inhibition at 1 µM on COX-1 was found to be 23.2%. Further, the inhibition at 0.01 µM at COX-2 was found to be 27.8%.

Consider `NS(=O)(=O)c1ccc(-n2nc(OCc3ccccc3)nc2-c2ccccc2)cc1` [Example 51, 4-(3-benzyloxy-5-phenyl-1,2,4-triazole-1-yl)-benzenesulfonamide], for which the inhibition at 1 µM on COX-1 was determined as 21.4%. Moreover, the inhibition at 0.01 µM at COX-2 was found to be 23.4%.

As for `NS(=O)(=O)c1ccc(-n2nc(O)nc2-c2ccc(Br)cc2)cc1` [Example 19, 4-[3-hydroxy-5-(4-bromophenyl)-1,2,4-triazole-1-yl]-benzenesulfonamide], on COX-1, the inhibition at 1 µM was found to be 37.4%. In addition, at COX-2, the inhibition at 0.01 µM was 12.3%.

Take `COc1ccc(-c2nc(OC)nn2-c2ccc(S(C)(=O)=O)cc2)cc1` [Example 59, 1-(4-methanesulfonylphenyl)-3-methoxy-5-(4-methoxylphenyl)-1H-1,2,4-triazole]: at COX-1, the inhibition at 1 µM came out at 22.6%. The inhibition at 0.01 µM on COX-2 is 27.2%.

As to `COc1ccc(-c2nc(OC3CCCC3)nn2-c2ccc(S(N)(=O)=O)cc2)cc1` [Example 37, 4-[3-cyclopentyloxy-5-(4-methoxyphenyl)-1,2,4-triazole-1-yl]-benzenesulfonamide], the inhibition at 1 µM at COX-1 turned out to be 12%. Moreover, the inhibition at 0.01 µM at COX-2 came out at 22.3%.
